From ChEMBL document CHEMBL3272353, “4-Substituted semicarbazones of mono- and dichlorobenzaldehydes as antihypertensive agents” (J Med Chem, 1977)
Activity calls are given as the source filed them. The calls are words filed in the database; no cut-off is given here.

Tests used:
Rattus norvegicus [1] = assay: Antihypertensive activity in spontaneously hypertensive rat assessed as reduction in mean arterial blood pressure at 100 mg/kg, po administered as two dose at 24 hrs interval measured 4 hrs post second dose relative to control; assay type: functional, Artery; set-up: scale not given: the % may be the effect or the level left
Rattus norvegicus [2] = assay: Antihypertensive activity in spontaneously hypertensive rat assessed as reduction in mean arterial blood pressure at 25 mg/kg, po administered as two dose at 24 hrs interval measured 4 hrs post second dose relative to control; assay type: functional, Artery; set-up: scale not given: the % may be the effect or the level left
Rattus norvegicus [3] = assay: Antihypertensive activity in spontaneously hypertensive rat assessed as reduction in mean arterial blood pressure at 10 mg/kg, po administered as two dose at 24 hrs interval measured 4 hrs post second dose relative to control; assay type: functional, Artery; set-up: scale not given: the % may be the effect or the level left
Canis familiaris [4] = assay: Toxicity in dog assessed ataxia at 10 mg/kg, po administered in gelatin capsules; assay type: organism-based, Canis lupus familiaris; set-up: dose 10 mg/kg, route oral; settings: in vivo
Rattus norvegicus [5] = assay: Antihypertensive activity in spontaneously hypertensive rat assessed as reduction in mean arterial blood pressure at 5 mg/kg, po administered as two dose at 24 hrs interval measured 4 hrs post second dose relative to control; assay type: functional, Artery; set-up: scale not given: the % may be the effect or the level left
Rattus norvegicus [6] = assay: Toxicity in spontaneously hypertensive rat assessed as general depression of cardiovascular function at 100 mg/kg, po administered as two dose at 24 hrs interval; assay type: organism-based, Heart; set-up: dose 100 mg/kg, route oral; settings: in vivo
Canis familiaris [7] = assay: Antihypertensive activity in normotensive dog assessed as reduction in mean arterial blood pressure at 5 to 10 mg/kg, po administered in gelatin capsules; assay type: functional, organism-based; settings: Canis lupus familiaris, Artery
Rattus norvegicus [8] = assay: Toxicity in spontaneously hypertensive rat assessed as adverse effect at 5 to 10 mg/kg, po administered as two dose at 24 hrs interval; assay type: organism-based; set-up: dose 5-10 mg/kg, route oral; settings: in vivo

Molecule `O=C(N/N=C/c1c(Cl)cccc1Cl)N1CCOCC1` has an Activity (Rattus norvegicus [1]) of 13%.
`CN(C)C(=O)N/N=C/c1ccc(Cl)cc1` was tested, and the Activity (Rattus norvegicus [1]) was 16%.
`N=C(N)N/N=C/c1c(Cl)cccc1Cl` [GUANABENZ] was tested, and the Activity (Rattus norvegicus [2]) was 26%.
For `CN(C)C(=O)N/N=C/c1c(Cl)cccc1Cl`, the Activity (Rattus norvegicus [3]) was 46%, the Activity (Canis familiaris [4]) was “Toxic” and the Activity (Rattus norvegicus [5]) was 31%. The Activity (Rattus norvegicus [6]) was “Toxic”, the Activity (Canis familiaris [7]) was “inactive” and the Activity (Rattus norvegicus [8]) was “Non-toxic”.
`CNC(=O)N/N=C/c1c(Cl)cccc1Cl` was tested, and the Activity (Rattus norvegicus [1]) was 32%.
